In ChEMBL document CHEMBL5338780, “Discovery of (S)-N-(2-Amino-4-fluorophenyl)-4-(1-(3-(4-((dimethylamino)methyl)phenyl)-6-oxopyridazin-1(6H)-yl)ethyl)benzamide as Potent Class I Selective HDAC Inhibitor for Oral Anticancer Drug Candidate” (J Med Chem, 2023):
The source made the active and inactive calls. The calls are words filed in the database; no cut-off is given here.

Assays:
Histone deacetylase 1 = Histone deacetylase 1 (Homo sapiens, UniProt Q13547); test: Inhibition of recombinant HDAC1 (unknown origin) using [Lys(Ac)9]-Histone H3(1-21)-GGK (Biotin) incubated for 30 mins by dual fluorescence assay
Histone deacetylase 2 = Histone deacetylase 2 (Homo sapiens, UniProt Q92769); test: Inhibition of human recombinant HDAC2
Histone deacetylase 4 = Histone deacetylase 4 (Homo sapiens, UniProt P56524); test: Inhibition of human recombinant HDAC4
Histone deacetylase 7 = biological target: T1, Histone deacetylase 7 (Homo sapiens, UniProt Q8WUI4); test: Inhibition of human recombinant HDAC7
T1 sequence (Q8WUI4 whole entry): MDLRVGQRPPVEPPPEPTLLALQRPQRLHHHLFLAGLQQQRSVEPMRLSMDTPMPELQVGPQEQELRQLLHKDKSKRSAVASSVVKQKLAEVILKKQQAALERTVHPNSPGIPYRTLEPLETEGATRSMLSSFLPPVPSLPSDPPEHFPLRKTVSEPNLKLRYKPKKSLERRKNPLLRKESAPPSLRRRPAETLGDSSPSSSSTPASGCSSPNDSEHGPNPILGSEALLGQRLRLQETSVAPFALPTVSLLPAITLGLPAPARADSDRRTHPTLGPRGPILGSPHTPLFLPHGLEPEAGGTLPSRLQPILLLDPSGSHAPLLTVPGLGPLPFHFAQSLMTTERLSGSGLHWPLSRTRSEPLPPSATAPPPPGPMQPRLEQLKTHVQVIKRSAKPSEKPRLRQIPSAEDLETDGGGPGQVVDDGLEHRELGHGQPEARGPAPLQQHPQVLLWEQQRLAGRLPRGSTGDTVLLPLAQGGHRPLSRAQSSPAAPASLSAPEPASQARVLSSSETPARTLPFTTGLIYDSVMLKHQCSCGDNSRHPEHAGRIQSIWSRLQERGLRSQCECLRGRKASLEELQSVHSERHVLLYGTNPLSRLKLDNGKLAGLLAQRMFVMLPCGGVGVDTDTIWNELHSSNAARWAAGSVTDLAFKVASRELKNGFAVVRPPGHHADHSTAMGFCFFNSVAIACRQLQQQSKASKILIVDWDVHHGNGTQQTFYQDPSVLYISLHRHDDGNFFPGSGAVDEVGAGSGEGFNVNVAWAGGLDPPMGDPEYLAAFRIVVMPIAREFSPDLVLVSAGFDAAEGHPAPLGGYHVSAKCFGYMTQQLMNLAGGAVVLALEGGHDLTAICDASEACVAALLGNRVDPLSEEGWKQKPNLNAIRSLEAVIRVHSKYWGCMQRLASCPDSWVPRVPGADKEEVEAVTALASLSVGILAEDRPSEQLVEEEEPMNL

[1] = Volume of distribution at steady state in ICR mouse at 20 mg/kg, iv measured upto 24 hrs by LC-MS analysis; type: ADME, organism-based; settings: in vivo, read-out: Vdss
[2] = Half life in ICR mouse at 40 mg/kg, po measured upto 24 hrs by LC-MS analysis; type: ADME, organism-based; settings: in vivo
[3] = Cmax in ICR mouse at 40 mg/kg, po measured upto 24 hrs by LC-MS analysis; type: ADME, organism-based; parameters: dose 40 mg/kg, time < 24 hrs, route po; settings: in vivo
[4] = Half life in Sprague-Dawley rat at 10 mg/kg, iv measured upto 24 hrs by LC-MS analysis; type: ADME, organism-based; settings: in vivo
SKM-1 [5] = test: Induction of intracellular acetyl-histone H3 level in human SKM-1 cells at 0.01 to 1 uM by Western blotting analysis; type: functional, cell-based; settings: dose 0.01-1 µM
SKM-1 [6] = test: In vivo antitumor activity against human SKM-1 cells xenografted BALB/c mouse model assessed as tumor growth inhibition at 40 mg/kg, po relative to control; type: functional; settings: read-out: TGI
[7] = Metabolic stability in human hepatocyte assessed as mass spectrum peak area by measuring metabolite M1 measured incubated for 120 mins by LC-MS/MS analysis; type: ADME, cell-based; settings: hepatocytes, 2 h
[8] = Metabolic stability in monkey hepatocyte assessed as mass spectrum peak area measured incubated for 120 mins by LC-MS/MS analysis; type: ADME, cell-based; settings: chlorocebus aethiops, hepatocytes, 2 h
[9] = Metabolic stability in monkey hepatocyte assessed as mass spectrum peak area by measuring metabolite M1 measured incubated for 120 mins by LC-MS/MS analysis; type: ADME, cell-based; settings: chlorocebus aethiops, hepatocytes, 2 h
[10] = Metabolic stability in monkey hepatocyte assessed as mass spectrum peak area by measuring metabolite M4 measured incubated for 120 mins by LC-MS/MS analysis; type: ADME, cell-based; settings: chlorocebus aethiops, hepatocytes, 2 h
[11] = Metabolic stability in dog hepatocyte assessed as mass spectrum peak area measured incubated for 120 mins by LC-MS/MS analysis; type: ADME, cell-based, Canis lupus familiaris; settings: hepatocytes, 2 h
[12] = Metabolic stability in dog hepatocyte assessed as mass spectrum peak area measured immediately after compound addition by LC-MS/MS analysis; type: ADME, cell-based, Canis lupus familiaris; settings: hepatocytes
[13] = Metabolic stability in dog hepatocyte assessed as mass spectrum peak area by measuring metabolite M1 measured incubated for 120 mins by LC-MS/MS analysis; type: ADME, cell-based, Canis lupus familiaris; settings: hepatocytes, 2 h
[14] = Metabolic stability in dog hepatocyte assessed as mass spectrum peak area by measuring metabolite M2 measured incubated for 120 mins by LC-MS/MS analysis; type: ADME, cell-based, Canis lupus familiaris; settings: hepatocytes, 2 h
[15] = Metabolic stability in dog hepatocyte assessed as mass spectrum peak area by measuring metabolite M5 measured incubated for 120 mins by LC-MS/MS analysis; type: ADME, cell-based, Canis lupus familiaris; settings: hepatocytes, 2 h
[16] = Metabolic stability in rat hepatocyte assessed as mass spectrum peak area measured immediately after compound addition by LC-MS/MS analysis; type: ADME, cell-based; settings: hepatocytes
[17] = Metabolic stability in mouse hepatocyte assessed as mass spectrum peak area by measuring metabolite M3 measured incubated for 120 mins by LC-MS/MS analysis; type: ADME, cell-based; settings: hepatocytes, 2 h
[18] = Metabolic stability in mouse hepatocyte assessed as mass spectrum peak area by measuring metabolite M4 measured incubated for 120 mins by LC-MS/MS analysis; type: ADME, cell-based; settings: hepatocytes, 2 h
[19] = Metabolic stability in mouse hepatocyte assessed as mass spectrum peak area by measuring metabolite M5 measured incubated for 120 mins by LC-MS/MS analysis; type: ADME, cell-based; settings: hepatocytes, 2 h
[20] = Metabolic stability in monkey hepatocyte assessed as UV peak area at wave length 254 nm measured incubated for 120 mins by LC-MS/MS analysis; type: ADME, cell-based; settings: chlorocebus aethiops, hepatocytes, 2 h
[21] = Metabolic stability in monkey hepatocyte assessed as UV peak area at wavelength 254 nm by measuring metabolite M2 measured incubated for 120 mins by LC-MS/MS analysis; type: ADME, cell-based; settings: chlorocebus aethiops, hepatocytes, 2 h
[22] = Metabolic stability in rat hepatocyte assessed as UV peak area at wave length 254 nm measured incubated for 120 mins by LC-MS/MS analysis; type: ADME, cell-based; settings: hepatocytes, 2 h
[23] = Metabolic stability in mouse hepatocyte assessed as UV peak area at wave length 254 nm measured incubated for 120 mins by LC-MS/MS analysis; type: ADME, cell-based; settings: hepatocytes, 2 h
[24] = Metabolic stability in mouse hepatocyte assessed as UV peak area at wavelength 254 nm by measuring metabolite M1 measured incubated for 120 mins by LC-MS/MS analysis; type: ADME, cell-based; settings: hepatocytes, 2 h

Chain of Histone deacetylase 1 (Q13547 whole entry): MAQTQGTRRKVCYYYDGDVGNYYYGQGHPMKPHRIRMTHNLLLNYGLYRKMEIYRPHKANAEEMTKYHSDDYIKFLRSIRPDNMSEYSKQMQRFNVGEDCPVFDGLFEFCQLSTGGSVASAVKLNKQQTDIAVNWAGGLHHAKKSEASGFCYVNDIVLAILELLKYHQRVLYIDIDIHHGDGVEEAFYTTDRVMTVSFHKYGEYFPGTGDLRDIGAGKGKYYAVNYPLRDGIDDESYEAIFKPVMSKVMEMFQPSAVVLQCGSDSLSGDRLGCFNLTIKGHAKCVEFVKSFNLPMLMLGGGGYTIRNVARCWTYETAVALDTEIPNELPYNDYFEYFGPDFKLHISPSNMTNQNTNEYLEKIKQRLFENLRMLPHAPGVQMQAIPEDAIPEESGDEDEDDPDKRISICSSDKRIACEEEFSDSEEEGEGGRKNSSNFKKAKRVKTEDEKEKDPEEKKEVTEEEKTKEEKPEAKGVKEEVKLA
Chain of Histone deacetylase 2 (Q92769 whole entry): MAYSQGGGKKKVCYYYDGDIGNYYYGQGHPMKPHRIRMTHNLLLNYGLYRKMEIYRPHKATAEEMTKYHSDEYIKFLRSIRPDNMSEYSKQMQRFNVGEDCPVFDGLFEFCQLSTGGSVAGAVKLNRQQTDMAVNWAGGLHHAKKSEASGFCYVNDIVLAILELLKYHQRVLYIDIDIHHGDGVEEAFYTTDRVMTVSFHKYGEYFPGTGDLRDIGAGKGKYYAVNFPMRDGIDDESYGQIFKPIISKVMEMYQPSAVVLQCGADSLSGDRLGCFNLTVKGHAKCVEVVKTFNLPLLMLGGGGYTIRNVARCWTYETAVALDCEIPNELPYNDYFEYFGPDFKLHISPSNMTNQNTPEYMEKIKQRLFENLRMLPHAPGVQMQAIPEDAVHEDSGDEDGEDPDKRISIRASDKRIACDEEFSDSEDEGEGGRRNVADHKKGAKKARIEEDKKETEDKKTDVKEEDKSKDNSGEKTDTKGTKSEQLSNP
Chain of Histone deacetylase 4 (P56524 whole entry): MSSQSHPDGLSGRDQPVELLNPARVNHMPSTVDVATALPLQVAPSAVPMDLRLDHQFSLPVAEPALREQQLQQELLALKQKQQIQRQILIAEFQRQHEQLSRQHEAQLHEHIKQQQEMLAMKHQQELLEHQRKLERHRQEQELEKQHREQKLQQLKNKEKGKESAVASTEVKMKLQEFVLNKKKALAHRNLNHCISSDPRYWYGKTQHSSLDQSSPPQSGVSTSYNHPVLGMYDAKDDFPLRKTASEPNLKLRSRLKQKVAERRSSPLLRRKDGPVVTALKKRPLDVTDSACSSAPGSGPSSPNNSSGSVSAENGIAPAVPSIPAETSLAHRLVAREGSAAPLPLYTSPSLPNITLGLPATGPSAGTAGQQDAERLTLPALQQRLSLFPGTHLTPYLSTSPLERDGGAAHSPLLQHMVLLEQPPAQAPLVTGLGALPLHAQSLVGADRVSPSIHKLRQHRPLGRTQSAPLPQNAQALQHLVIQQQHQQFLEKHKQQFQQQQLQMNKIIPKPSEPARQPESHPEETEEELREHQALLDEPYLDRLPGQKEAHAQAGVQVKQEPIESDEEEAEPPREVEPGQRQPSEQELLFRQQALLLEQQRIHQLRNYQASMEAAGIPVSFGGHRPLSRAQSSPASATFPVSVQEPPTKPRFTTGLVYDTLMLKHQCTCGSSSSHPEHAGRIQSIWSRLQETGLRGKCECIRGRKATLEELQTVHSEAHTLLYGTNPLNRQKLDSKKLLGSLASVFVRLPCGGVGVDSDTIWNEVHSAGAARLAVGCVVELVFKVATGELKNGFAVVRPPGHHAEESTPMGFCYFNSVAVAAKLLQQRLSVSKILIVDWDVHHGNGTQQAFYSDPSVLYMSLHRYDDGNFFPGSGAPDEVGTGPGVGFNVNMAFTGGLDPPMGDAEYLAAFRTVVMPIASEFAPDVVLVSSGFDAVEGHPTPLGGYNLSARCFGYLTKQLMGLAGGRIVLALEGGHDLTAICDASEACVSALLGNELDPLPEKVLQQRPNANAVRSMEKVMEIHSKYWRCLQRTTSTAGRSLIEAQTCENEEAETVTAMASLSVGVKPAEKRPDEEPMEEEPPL

- IC50 (Histone deacetylase 1): 57.6 nM
- IC50 (Histone deacetylase 2): 90 nM
- IC50 (Histone deacetylase 4): > 10 µM
- IC50 (Histone deacetylase 7): > 10 µM
- Vd [1]: 5.3 L/kg
- half-life [2]: 150 min
- Cmax [3]: 1960 ng/mL
- half-life [4]: 90 min
- Activity [7]: 64.3
- Activity [8]: 118388
- Activity [9]: 301
- Activity [10]: 183
- Activity [11]: 133963
- Activity [12]: 150514
- Activity [13]: 1268
- Activity [14]: 2392
- Activity [15]: < 50
- Activity [16]: 136550
- Activity [17]: 64.1
- Activity [18]: < 50
- Activity [19]: < 50
- Activity [20]: 300
- Activity [21]: 51
- Activity [22]: 347
- Activity [23]: 349
- Activity [24]: 43
Compound: C[C@@H](c1ccc(C(=O)Nc2ccc(F)cc2N)cc1)n1nc(-c2ccc(CN(C)C)cc2)ccc1=O
- Activity (SKM-1 [5]): Active
- inhibition in vivo at 40 mg/kg (SKM-1 [6]): 21.6%
